# According to US20250019385A1, “SPIROCYCLIC ANNULATED 2-AMINO-3-CYANO THIOPHENES AND DERIVATIVES FOR THE TREATMENT OF CANCER” (Boehringer Ingelheim International GmbH, priority 2023, published 2025):
# Biological target: KRAS (G12D)::CRAF protein::protein interaction (Homo sapiens (Human), UniProt P01116, G12D)
# Experiment: KRAS TR-FRET assay (KRAS G12D::CRAF, GTP)
# Format: binding
# Settings: not given
# Experimental: This assay measures the inhibitory effect of compounds on KRAS::CRAF protein::protein interactions in the presence of GTP using Time-resolved fluorescence energy transfer (TR-FRET).
# The following wildtype or mutant alleles of KRAS and CRAF protein have been used at the given concentrations:
# KRAS (G12D) 1-169, N-terminal 6His-tag, C-terminal avi-tag (Xtal BioStructures, Inc.); final assay concentration 15 nM,
# CRAF Ras binding domain, GST-tag, TEV cleavage site (Boehringer Ingelheim in house protein prep); final assay concentration 15 nM.
# Test compounds dissolved in DMSO were dispensed onto assay plates (Proxiplate 384 PLUS, white, PerkinElmer; 6008289) using an Access Labcyte Workstation with the Labcyte Echo 55x. For the chosen highest assay concentration of 100 μM, 150 nl of compound solution was transferred from a 10 mM DMSO compound stock solution. A series of eleven fivefold dilutions per compound was transferred to the assay plate, compound dilutions were tested in duplicates. DMSO was added as backfill to a total volume of 150 nl.
# The assay runs on a fully automated robotic system. To 150 nl of compound dilution 15 μl of a mix including the respective KRAS allele, CRAF (e.g. KRAS (G12D)::CRAF; final assay concentrations see above), GTP nucleotide (Sigma G8877; final assay concentration 10 μM), Lance Eu—W1024 labeled Streptavidin (PerkinElmer, Cat No AD0063; final assay concentration 1.5 nM) and Anti-GST surelight APC (PerkinElmer, Cat No AD0059G; final assay concentration 30 nM) in assay buffer (1×PBS, 0.1% BSA, 0.05% Tween 20) are added into columns 1-23 and 15 μL of the solution without the respective KRAS allele were added to row 24.
# Plates are kept at room temperature in a darkened incubator. After 60 minutes incubation time the signal is measured in a PerkinElmer Envision HTS Multilabel Reader using the TR-FRET LANCE Ultra specs from PerkinElmer.
# Each plate contains 16 wells of a negative control (diluted DMSO instead of test compound; w respective KRAS allele; column 23) and 16 wells of a positive control (diluted DMSO instead of test compound; w/o respective KRAS allele; column 24).
# IC50 values were calculated and analyzed with Boehringer Ingelheim's MEGALAB 50 application using a 4 parametric logistic model.
# Tables of example compounds disclosed herein contain IC50 values determined using the above assays (see Table 44).
# Chain of KRAS (G12D)::CRAF protein::protein interaction (P01116 other isoform, or with tags, fused parts or gaps G12D): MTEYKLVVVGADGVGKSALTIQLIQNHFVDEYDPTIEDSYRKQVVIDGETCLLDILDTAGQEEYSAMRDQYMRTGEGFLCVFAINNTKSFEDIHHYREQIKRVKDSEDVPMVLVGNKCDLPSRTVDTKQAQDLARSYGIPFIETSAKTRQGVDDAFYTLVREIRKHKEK
row,SMILES,IC50 [nM]
1,C[C@H](Oc1nc(-c2onc3c2CCC[C@@]32CCCc3sc(N)c(C#N)c32)nc2c1n(C)c(=O)n2[C@@H]1CCOC1)[C@@H]1CCCN1C [I-20],46
2,COCCn1c(=O)n([C@@H]2CCOC2)c2nc(-c3onc4c3CCC[C@@]43CCCc4sc(N)c(C#N)c43)nc(O[C@@H](C)[C@@H]3CCCN3C)c21 [I-1],145
3,C[C@H](Oc1nc(-c2onc3c2CCC[C@@]32CCCc3sc(N)c(C#N)c32)nc2c1n(C)c(=O)n2[C@@]12COC[C@@H]1C2)[C@@H]1CCCN1C [I-29],85
4,C[C@H](Oc1nc(-c2noc3c2CCC[C@@]32CCCc3sc(N)c(C#N)c32)nc2c1CCO[C@]21CCOC1)[C@@H]1CCCN1C [II-9b],117
5,CCn1c(=O)n([C@@H]2CCCOC2)c2nc(-c3onc4c3CCC[C@@]43CCCc4sc(N)c(C#N)c43)nc(O[C@@H](C)[C@@H]3CCCN3C)c21 [I-30],163
6,C[C@H](Oc1nc(-c2onc3c2CCC[C@@]32CCCc3sc(N)c(C#N)c32)nc2c1[nH]c(=O)n2[C@@H]1CCOC1)[C@@H]1CCCN1C [I-8],47
7,CCn1c(=O)n([C@@H]2CCOC2)c2nc(-c3onc4c3CCC[C@@]43CCCc4sc(N)c(C#N)c43)nc(O[C@@H](C)[C@@H]3CCCN3C)c21 [I-21],85
8,CO[C@@H]1C[C@@H]([C@H](C)Oc2nc(-c3onc4c3CCC[C@@]43CCCc4sc(N)c(C#N)c43)nc3c2n(C)c(=O)n3[C@@H]2CCOC2)N(C)C1 [I-3],71
9,C[C@H](Oc1nc(-c2noc3c2CCC[C@@]32CCCc3sc(N)c(C#N)c32)nc2c1n(C)c(=O)n2[C@@H]1CCOC1)[C@@H]1CCCN1C [II-2],32
10,C[C@H](Oc1nc(-c2onc3c2CCC[C@@]32CCCc3sc(N)c(C#N)c32)nc2c1n(C)c(=O)n2[C@@H]1CCCOC1)[C@@H]1CCCN1C [I-12],62
11,C[C@H](Oc1nc(-c2onc3c2CCC[C@@]32CCCc3sc(N)c(C#N)c32)nc2c1COC[C@]21CCOC1)[C@@H]1CCCN1C [I-54],25
12,C[C@H](Oc1nc(-c2onc3c2CCC[C@@]32CCCc3sc(N)c(C#N)c32)nc2c1n(C)c(=O)n2[C@@H]1CCOC1)[C@@H]1C[C@@H]2C[C@@H]2N1C [I-28],434

# Biological target: CYP3A4 (Homo sapiens (Human), UniProt P08684)
# Experiment: Mechanism based inhibition of CYP3A4 assay (MBI 3A4)
# Format: in vitro ADME
# Settings: human liver microsomes, 25 uM compound; hydroxy-midazolam formation after 30 min preincubation relative to 0 min
# Experimental: The time dependent inhibition towards CYP3A4 is assayed in human liver microsomes (0.02 mg/mL) with midazolam (15 μM) as a substrate. The test compounds and water control (wells w/o test compound) are preincubated in presence of NADPH (1 mM) with human liver microsomes (0.2 mg/mL) at a concentration of 25 uM for 0 min and 30 min. After preincubation, the incubate is diluted 1:10 and the substrate midazolam is added for the main incubation (15 min). The main incubation is quenched with acetonitrile and the formation of hydroxy-midazolam is quantified via LC/MS-MS. The formation of hydroxy-midazolam from the 30 min preincubation relative to the formation from the 0 min preincubation is used as a readout. Values of less than 100% mean that the substrate midazolam is metabolized to a lower extent upon 30 min preincubation compared to 0 min preincubation. In general low effects upon 30 min preincubation are desired (corresponding to values close to 100%/not different to the values determined with water control).
# Chain of CYP3A4 (P08684 whole entry): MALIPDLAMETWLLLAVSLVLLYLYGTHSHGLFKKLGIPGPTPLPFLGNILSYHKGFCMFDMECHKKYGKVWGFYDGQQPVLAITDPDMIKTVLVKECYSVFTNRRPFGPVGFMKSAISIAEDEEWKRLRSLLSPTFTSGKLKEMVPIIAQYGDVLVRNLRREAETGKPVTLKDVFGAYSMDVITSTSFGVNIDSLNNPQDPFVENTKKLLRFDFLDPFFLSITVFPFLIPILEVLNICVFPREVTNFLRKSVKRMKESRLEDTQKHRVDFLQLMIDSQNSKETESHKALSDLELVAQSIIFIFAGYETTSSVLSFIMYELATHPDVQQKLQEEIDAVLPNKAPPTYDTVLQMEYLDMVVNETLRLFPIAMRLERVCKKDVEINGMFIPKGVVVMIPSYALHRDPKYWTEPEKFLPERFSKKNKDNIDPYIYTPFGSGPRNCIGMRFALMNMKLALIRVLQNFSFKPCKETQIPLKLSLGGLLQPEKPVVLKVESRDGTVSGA
row,SMILES,MBI 3A4 [%]
1,C[C@H](Oc1nc(-c2onc3c2CCC[C@@]32CCCc3sc(N)c(C#N)c32)nc2c1n(C)c(=O)n2[C@@H]1CCOC1)[C@@H]1CCCN1C [I-20],92
2,C[C@H](Oc1nc(-c2onc3c2CCC[C@@]32CCCc3sc(N)c(C#N)c32)nc2c1n(C)c(=O)n2[C@@]12COC[C@@H]1C2)[C@@H]1CCCN1C [I-29],79
3,C[C@H](Oc1nc(-c2noc3c2CCC[C@@]32CCCc3sc(N)c(C#N)c32)nc2c1CCO[C@]21CCOC1)[C@@H]1CCCN1C [II-9b],101
4,C[C@H](Oc1nc(-c2onc3c2CCC[C@@]32CCCc3sc(N)c(C#N)c32)nc2c1[nH]c(=O)n2[C@@H]1CCOC1)[C@@H]1CCCN1C [I-8],61
5,C[C@H](Oc1nc(-c2onc3c2CCC[C@@]32CCCc3sc(N)c(C#N)c32)nc2c1n(C)c(=O)n2[C@@H]1CCCOC1)[C@@H]1CCCN1C [I-12],75
6,C[C@H](Oc1nc(-c2onc3c2CCC[C@@]32CCCc3sc(N)c(C#N)c32)nc2c1COC[C@]21CCOC1)[C@@H]1CCCN1C [I-54],83

# Test system: not listed separately
# Experiment: Caco-2 assay (permeability and efflux ratio)
# Format: in vitro ADME
# Settings: human, Caco-2 apical to basolateral permeability, pH 7.4, read-out: Caco PappAB
# Experimental: The assay provides information on the potential of a compound to pass the cell membrane, on the extent of oral absorption as well as on whether the compound is actively transported by uptake and/or efflux transporters. Permeability measurements across polarized, confluent Caco-2 cell monolayers grown on permeable filter supports (Corning, catalog #3391) are used. 10 μM test compound solution in assay buffer (128.13 mM NaCl, 5.36 mM KCl, 1 mM MgSO4, 1.8 mM CaCl2), 4.17 mM NaHCO3, 1.19 mM Na2HPO4, 0.41 mM NaH2PO4, 15 mM 2-[4-(2-hydroxyethyl)piperazin-1-yl]ethanesulfonic acid (HEPES), 20 mM glucose, pH 7.4) was added to the donor compartment of the cell chamber containing a monolayer of Caco-2 cells in between the donor and the receiver compartment. The receiver and donor compartments contain 0.25% bovine serum albumine (BSA) in assay buffer. Passive diffusion and/or active transport of compounds across the monolayer is measured in both apical to basolateral (a-b) and basolateral to apical (b-a) direction. a-b permeability (PappAB) represents drug absorption from the intestine into the blood and b-a permeability (PappBA) drug secretion from the blood back into the intestine via both passive permeability as well as active transport mechanisms mediated by efflux and uptake transporters that are expressed on the Caco-2 cells. After a pre-incubation of 25-30 min at 37° C., at predefined time points (0, 30, 60 and 90 min), samples were taken from the receiver and donor compartment, respectively. Concentrations of test compounds in samples were measured by HPLC/MS/MS, samples from the donor compartment were diluted 1:50 (v:v) with assay buffer, samples from receiver compartment were measured without dilution.
# Apparent permeabilities in a-b (PappAB) and b-a (PappBA) directions are calculated according to the formula:
# [formula] • Vrec [mL]: buffer volume in receiver compartment • Cdon [μmol/mL]: concentration of test compound in donor compartment at t=0 • ΔCrec: difference between concentrations of test compound in receiver compartment at start and end of incubation time • Δt: Incubation time • Vrec·ΔCrec/Δt [μmol/min]: Amount of compound transferred to receiver compartment per time • A [cm^2]: filter surface
# Caco-2 efflux ratios (ER) are calculated as the ratio of PappBA/PappAB.
row,SMILES,"Papp A→B at 90 min, 10 μM [×10⁻⁶ cm/s]"
1,C[C@H](Oc1nc(-c2onc3c2CCC[C@@]32CCCc3sc(N)c(C#N)c32)nc2c1n(C)c(=O)n2[C@@H]1CCOC1)[C@@H]1CCCN1C [I-20],11.9
2,COCCn1c(=O)n([C@@H]2CCOC2)c2nc(-c3onc4c3CCC[C@@]43CCCc4sc(N)c(C#N)c43)nc(O[C@@H](C)[C@@H]3CCCN3C)c21 [I-1],18
3,C[C@H](Oc1nc(-c2onc3c2CCC[C@@]32CCCc3sc(N)c(C#N)c32)nc2c1n(C)c(=O)n2[C@@]12COC[C@@H]1C2)[C@@H]1CCCN1C [I-29],19
4,C[C@H](Oc1nc(-c2noc3c2CCC[C@@]32CCCc3sc(N)c(C#N)c32)nc2c1CCO[C@]21CCOC1)[C@@H]1CCCN1C [II-9b],25
5,C[C@H](Oc1nc(-c2onc3c2CCC[C@@]32CCCc3sc(N)c(C#N)c32)nc2c1[nH]c(=O)n2[C@@H]1CCOC1)[C@@H]1CCCN1C [I-8],0.8
6,CCn1c(=O)n([C@@H]2CCOC2)c2nc(-c3onc4c3CCC[C@@]43CCCc4sc(N)c(C#N)c43)nc(O[C@@H](C)[C@@H]3CCCN3C)c21 [I-21],19
7,CO[C@@H]1C[C@@H]([C@H](C)Oc2nc(-c3onc4c3CCC[C@@]43CCCc4sc(N)c(C#N)c43)nc3c2n(C)c(=O)n3[C@@H]2CCOC2)N(C)C1 [I-3],29
8,C[C@H](Oc1nc(-c2onc3c2CCC[C@@]32CCCc3sc(N)c(C#N)c32)nc2c1n(C)c(=O)n2[C@@H]1CCCOC1)[C@@H]1CCCN1C [I-12],25.5

# Same assay, conditions: human, pH 7.4, Caco-2 efflux ratio PappBA/PappAB, read-out: Caco ER
row,SMILES,"efflux ratio at 90 min, 10 μM"
1,C[C@H](Oc1nc(-c2onc3c2CCC[C@@]32CCCc3sc(N)c(C#N)c32)nc2c1n(C)c(=O)n2[C@@H]1CCOC1)[C@@H]1CCCN1C [I-20],6.2
2,COCCn1c(=O)n([C@@H]2CCOC2)c2nc(-c3onc4c3CCC[C@@]43CCCc4sc(N)c(C#N)c43)nc(O[C@@H](C)[C@@H]3CCCN3C)c21 [I-1],3.1
3,C[C@H](Oc1nc(-c2onc3c2CCC[C@@]32CCCc3sc(N)c(C#N)c32)nc2c1n(C)c(=O)n2[C@@]12COC[C@@H]1C2)[C@@H]1CCCN1C [I-29],2.5
4,C[C@H](Oc1nc(-c2noc3c2CCC[C@@]32CCCc3sc(N)c(C#N)c32)nc2c1CCO[C@]21CCOC1)[C@@H]1CCCN1C [II-9b],1.8
5,CCn1c(=O)n([C@@H]2CCCOC2)c2nc(-c3onc4c3CCC[C@@]43CCCc4sc(N)c(C#N)c43)nc(O[C@@H](C)[C@@H]3CCCN3C)c21 [I-30],0.7
6,C[C@H](Oc1nc(-c2onc3c2CCC[C@@]32CCCc3sc(N)c(C#N)c32)nc2c1[nH]c(=O)n2[C@@H]1CCOC1)[C@@H]1CCCN1C [I-8],46.3
7,CCn1c(=O)n([C@@H]2CCOC2)c2nc(-c3onc4c3CCC[C@@]43CCCc4sc(N)c(C#N)c43)nc(O[C@@H](C)[C@@H]3CCCN3C)c21 [I-21],3.8
8,CO[C@@H]1C[C@@H]([C@H](C)Oc2nc(-c3onc4c3CCC[C@@]43CCCc4sc(N)c(C#N)c43)nc3c2n(C)c(=O)n3[C@@H]2CCOC2)N(C)C1 [I-3],1.9
9,C[C@H](Oc1nc(-c2onc3c2CCC[C@@]32CCCc3sc(N)c(C#N)c32)nc2c1n(C)c(=O)n2[C@@H]1CCCOC1)[C@@H]1CCCN1C [I-12],1.7
